US4383113A, “Agricultural sulfonamides” (E. I. Du Pont de Nemours and Company, priority 1981, dated 1983)

How the values were obtained:
alfalfa [1] = assay: Test D pre-emergence on soil; type: in vivo; details: 1/8 kg/ha
Source text: (§1) The high herbicidal activity of one of the compounds from within the scope of the invention is evident from the results obtained in this test. The experiment concerned pre-emergence applications on soil. The containers used were 25 cm diameter plastic pots filled with Fallsington silt loam. One set of pots was planted to weeds the seeds of which were uniformly mixed with the top 1.2 cm layer of soil. The species selected were: johnsongrass (Sorghum halepense), barnyardgrass (Echinochloa crusgalli), crabgrass (Digitaria sanguinalis), giant foxtail (Setaria faberii), velvetleaf (Abutilon theophrasti), jimsonweed (Datura stramonium), mustard (Brassica arvensis) and pigweed (Amaranthus retroflexus). Another set of pots was planted to the following crops with from one to four species per pot: corn (planting depth 3.7 cm), cotton, soybeans, sunflower, Clinton oats, wheat, Black Valentine beans, rice, sorghum, peas, flax and peanuts (all at 2.5 cm depth), cucumbers, cabbage, alfalfa, safflower, sugarbeets, tomato, spinach, barley and Kentucky bluegrass (all at 1.2 cm depth). Immediately after planting, the test chemical was applied to the soil surfaces dissolved in a non-phytotoxic solvent. One pot from the weed phase and one of each of the crop species were left untreated for the purpose of comparison. The treated and untreated pots were promptly watered with approximately 4 mm of simulated rainfall and then held in a greenhouse for several weeds. Visual weed and crop response ratings were made 28 days after treatment utilizing the rating system as described above for test procedure A. The data are given in Table XV.

cabbage = assay: Test D pre-emergence on soil; type: in vivo; details: 1/8 kg/ha
Source text: as §1

corn = assay: Test D pre-emergence on soil; type: in vivo; details: 1/8 kg/ha
Source text: as §1

grasses = assay: Test D pre-emergence on soil; type: in vivo; details: 1/64 kg/ha
Source text: as §1

sorghum = assay: Test D pre-emergence on soil; type: in vivo; details: 1/8 kg/ha
Source text: as §1

spinach = assay: Test D pre-emergence on soil; type: in vivo; details: 1/8 kg/ha
Source text: as §1

wheat = assay: Test D pre-emergence on soil; type: in vivo; details: 1/8 kg/ha
Source text: as §1

sugarbeet = assay: Test D pre-emergence on soil; type: in vivo, sugarbeets; details: 1/8 kg/ha
Source text: as §1, with “The treated and untreated pots were promptly watered with approximately 4 mm of simulated rainfall and then held in a greenhouse for several weeds. Visual weed and crop response ratings were made 28 days after treatment utilizing the rating system as described above for test procedure A. The data are given in Table XV.” left out

pea = assay: Test D pre-emergence on soil; type: in vivo, peas; details: 1/8 kg/ha
Source text: as §1, with “The treated and untreated pots were promptly watered with approximately 4 mm of simulated rainfall and then held in a greenhouse for several weeds. Visual weed and crop response ratings were made 28 days after treatment utilizing the rating system as described above for test procedure A. The data are given in Table XV.” left out

Ky. bluegrass = assay: Test D pre-emergence on soil; type: in vivo, Kentucky bluegrass; details: 1/8 kg/ha
Source text: as §1, with “The treated and untreated pots were promptly watered with approximately 4 mm of simulated rainfall and then held in a greenhouse for several weeds. Visual weed and crop response ratings were made 28 days after treatment utilizing the rating system as described above for test procedure A. The data are given in Table XV.” left out

mustard = assay: Test E pre-emergence; type: in vivo, Brassica arvensis
Source text: (§2) The containers used were 25 cm diameter plastic pots filled with fertilized and limed Fallsington silt loam. Plantings of the following weed species were made twice, at a 10-day interval: mustard (Brassica arvensis), cocklebur (Xanthium spp.), morningglory (Ipomoea hederacea), cassia (Cassia tora), velvetleaf (Abutilon theophrasti), alfalfa (used as an indicator species), kochia (Kochia scoparia), sesbania (Sesbania exaltata), Russian thistle (Salsola kali), jimsonweed (Datura stramonium),and nutsedge (Cyperus rotundus). In addition, wheat and barley were planted in separate 15 cm diameter plastic pots filled with the same soil at the time of the early planting only. All plantings were treated with the test chemicals dissolved in a non-phytotoxic solvent immediately following completion of the second planting operation. At this time, the wheat was around 15-17.5 cm tall and the barley 12.5 to 15 cm tall, both in the 2-leaf stage of growth. The weed species of the earliest planting date were from 2.5 to 12.5 cm tall. The rates of application selected were 0.004, 0.007, 0.015 and 0.030 kg/ha for the weed phase and 0.12, 0.25 and 0.50 kg/ha for wheat and barley. The post-emergence part of this test was visually rated for plant response 21 days after treatment, and the pre-emergence part 28 days after treatment.

morningglory = assay: Test E pre-emergence; type: in vivo, Ipomoea hederacea
Source text: as §2

alfalfa [2] = assay: Test E pre-emergence; type: in vivo
Source text: as §2

sesbania = assay: Test E pre-emergence; type: in vivo, Sesbania exaltata; details: 1/64 kg/ha
Source text: as §2

kochia = assay: Test E pre-emergence; type: in vivo, Kochia scoparia
Source text: as §2

Russian thistle = assay: Test E pre-emergence; type: in vivo, Salsola kali
Source text: as §2

nutsedge = assay: Test E pre-emergence; type: in vivo, Cyperus rotundus
Source text: as §2

velvetleaf = assay: Test E pre-emergence; type: in vivo, Abutilon theophrasti
Source text: as §2

Q: `COC(=O)c1ccccc1S(=O)(=O)NC(=O)Nc1nc(OC)cc(OC)n1` [drawing 586] was tested. Which response rating (alfalfa [1]) did it give?
A: The response rating was 10C.

Q: And the response rating (cabbage)?
A: The response rating was 10C.

Q: What about the response rating (corn) of the same molecule?
A: Its response rating is 10C.

Q: And the response rating (grasses)?
A: Its response rating is 6G.

Q: What about the response rating (sorghum) of the same molecule?
A: Its response rating is 10C.

Q: And the response rating (spinach)?
A: Its response rating is 10C.

Q: What about the response rating (wheat) of the same molecule?
A: The response rating was 10C.

Q: And the response rating (sugarbeet)?
A: Its response rating is 10C.

Q: What about the response rating (pea) of the same molecule?
A: Its response rating is 10C.

Q: And the response rating (Ky. bluegrass)?
A: The response rating was 10C.

Q: Which response rating (mustard; 1/32 kg/ha) does the source give for `COc1nc(NC(=O)NS(=O)(=O)c2ccccc2C(=O)OC(C)C)nc(OC)n1` [drawing 587] here?
A: Its response rating is 10C.

Q: What about the response rating (mustard; 1/64 kg/ha) of the same molecule?
A: Its response rating is 10C.

Q: What about the response rating (mustard; 1/128 kg/ha) of the same molecule?
A: The response rating was 10C.

Q: What about the response rating (morningglory; 1/32 kg/ha) of the same molecule?
A: The response rating was 8G.

Q: What about the response rating (alfalfa [2]; 1/64 kg/ha) of the same molecule?
A: The response rating was 5G.

Q: What about the response rating (alfalfa [2]; 1/256 kg/ha) of the same molecule?
A: Its response rating is 5G.

Q: What about the response rating (sesbania) of the same molecule?
A: The response rating was 8G.

Q: And the response rating (kochia; 1/32 kg/ha)?
A: The response rating was 10C.

Q: And the response rating (kochia; 1/64 kg/ha)?
A: Its response rating is 10C.

Q: And the response rating (kochia; 1/128 kg/ha)?
A: The response rating was 10C.

Q: What about the response rating (Russian thistle; 1/32 kg/ha) of the same molecule?
A: Its response rating is 9C.

Q: What about the response rating (Russian thistle; 1/64 kg/ha) of the same molecule?
A: The response rating was 7C.

Q: And the response rating (Russian thistle; 1/128 kg/ha)?
A: The response rating was 7C.

Q: What about the response rating (Russian thistle; 1/256 kg/ha) of the same molecule?
A: The response rating was 5C.

Q: And the response rating (nutsedge; 1/64 kg/ha)?
A: Its response rating is 9G.

Q: And the response rating (nutsedge; 1/128 kg/ha)?
A: Its response rating is 8G.

Q: What about the response rating (nutsedge; 1/256 kg/ha) of the same molecule?
A: The response rating was 7G.

Q: Which results are given for `COc1nc(C)nc(NC(=O)NS(=O)(=O)c2ccccc2C(=O)OC(C)C)n1` [drawing 588]?
A: response rating (mustard; 1/32 kg/ha): 10C; response rating (mustard; 1/64 kg/ha): 10C; response rating (mustard; 1/128 kg/ha): 10C; response rating (mustard; 1/256 kg/ha): 10C; response rating (morningglory; 1/32 kg/ha): 10C; response rating (morningglory; 1/64 kg/ha): 10C; response rating (velvetleaf; 1/32 kg/ha): 10C; response rating (velvetleaf; 1/64 kg/ha): 10C; response rating (alfalfa [2]; 1/256 kg/ha): 7G; response rating (kochia; 1/32 kg/ha): 10C; response rating (kochia; 1/64 kg/ha): 10C; response rating (kochia; 1/128 kg/ha): 10C; response rating (Russian thistle; 1/32 kg/ha): 10C; response rating (Russian thistle; 1/64 kg/ha): 10C; response rating (Russian thistle; 1/128 kg/ha): 8C; response rating (Russian thistle; 1/256 kg/ha): 7C; response rating (nutsedge; 1/32 kg/ha): 8G; response rating (nutsedge; 1/64 kg/ha): 8G
